Paper PMC5907623 (Cancer Chemotherapy and Pharmacology, 2018)

Legend:
[1] = set-up: method as in PMID 29066505; details: cited from earlier work
[2] = Part A: safety and tolerability (adverse events, CTCAE v4.0) of AZD5363 tablet and capsule; assay type: in vivo, human
Protocol: PK parameters were assessed on the fourth day of Week 1 and Week 2 (i.e. on Day 4 and Day 11). […] Any AE occurring after the first dose of study treatment and up to 28 days after the last dose of study treatment was included in the AE summaries. The safety analysis set comprised all patients who received at least one dose of AZD5363. All safety data are presented descriptively.

[3] = Part A: steady-state PK of AZD5363 tablet versus capsule, partially fasted, in patients with advanced solid malignancies; assay type: in vivo, human
Protocol: PK parameters were assessed on the fourth day of Week 1 and Week 2 (i.e. on Day 4 and Day 11). […] In addition, pre-dose samples were drawn on Day 8 in Part B to verify that a washout period of 3.5 days was adequate for AZD5363. […] Following the addition of internal standard ([^13C6]AZ12886380), calibration, quality control (QC) and study samples (25 µL) were processed by solid-phase extraction then assayed for AZD5363 by liquid chromatography–tandem mass spectrometry. […] All trial samples were analysed within the known stability period for AZD5363 and all a priori assay acceptance criteria were met, in accordance with regulatory guidance. […] PK parameters were derived using non-compartmental methods (Phoenix® WinNonlin®). Plasma concentration–time profiles were analysed to determine Cmax, Cmin and tmax, while AUCτ was determined from application of the linear-up/log-down trapezoidal rule. […] The statistical analysis for estimating the food and capsule effect was based on analysing log-transformed PK parameters AUCτ and Cmax using a fixed-effects model with terms for patient and treatment only. […] Other PK parameters are presented descriptively.

[4] = Part B: safety and tolerability (adverse events, CTCAE v4.0) of AZD5363 tablet, fasted versus fed; assay type: in vivo, human; details: for Abdominal pain, All / Abdominal pain, Grade ≥ 3 / Anaemia, All / Anaemia, Grade ≥ 3 / Any AE (causally related), All / Any AE (causally related), Grade ≥ 3 / Any AE (irrespective of causality), All / Any AE (irrespective of causality), Grade ≥ 3 / Diarrhoea, All / Diarrhoea, Grade ≥ 3 / Hyperglycaemia, All / Hyperglycaemia, Grade ≥ 3 / Hypokalaemia, All / Hypokalaemia, Grade ≥ 3 / Pneumonia, All / Pneumonia, Grade ≥ 3 / Rash macular, All / Rash macular, Grade ≥ 3 / Rash maculopapular, All / Rash maculopapular, Grade ≥ 3 / Rash papular, All / Rash papular, Grade ≥ 3 / Skin discolouration, All / Skin discolouration, Grade ≥ 3: tablet
Protocol: (§1) Patients had been fasting overnight prior to the breakfast and no further food was permitted for 4 h post-dose.
Safety assessments throughout the study encompassed the incidence and severity of AEs (graded according to Common Terminology Criteria for Adverse Events [CTCAE] version 4.0), in addition to laboratory parameters (haematology, clinical chemistry, urinalysis), physical examination, 12-lead electrocardiography (ECG), and vital signs. To assess safety in the fed versus fasted state, the period during and just after the fasted day was considered relevant to the fasted dose (Days 4–7), and similarly, the fed day and subsequent days were considered relevant to the fed state (Days 11–14). Any AE occurring after the first dose of study treatment and up to 28 days after the last dose of study treatment was included in the AE summaries.
The safety analysis set comprised all patients who received at least one dose of AZD5363. All safety data are presented descriptively.

[5] = Part B: effect of food (overnight fast versus standardized meal) on steady-state PK of AZD5363 tablet in patients; assay type: in vivo, human; details: for AUCτ, Gmean (CV%) / Cmax, Gmean (CV%) / Cmin, Gmean (CV%) / tmax, median (range): tablet 480 mg bid, steady state, N = 9
Protocol: as §1
The bioanalytical method used to generate AZD5363 plasma concentration data for the derivation of PK parameters for the study had been previously validated, according to regulatory guidance, by Covance UK Ltd on behalf of AstraZeneca. Following the addition of internal standard ([^13C6]AZ12886380), calibration, quality control (QC) and study samples (25 µL) were processed by solid-phase extraction then assayed for AZD5363 by liquid chromatography–tandem mass spectrometry. […] All trial samples were analysed within the known stability period for AZD5363 and all a priori assay acceptance criteria were met, in accordance with regulatory guidance.
PK parameters were derived using non-compartmental methods (Phoenix® WinNonlin®). Plasma concentration–time profiles were analysed to determine Cmax, Cmin and tmax, while AUCτ was determined from application of the linear-up/log-down trapezoidal rule.
The statistical analysis for estimating the food and capsule effect was based on analysing log-transformed PK parameters AUCτ and Cmax using a fixed-effects model with terms for patient and treatment only. All statistical calculations and analyses were performed with SAS® software, version 9.1.3 or higher. Other PK parameters are presented descriptively.

[6] = Day 15 onward, partially fasted, N = 12
[7] = Day 11, fed (standardized meal)
[8] = tablet, N = 9, 90% CI where printed in brackets

## 4-amino-N-[(1S)-1-(4-chlorophenyl)-3-hydroxypropyl]-1-(7H-pyrrolo[2,3-d]pyrimidin-4-yl)piperidine-4-carboxamide [AZD5363]
[1]; dose range 80–800 mg
  Dose proportionality of plasma exposure: approximately dose proportional
[1]; patients
  Dose excreted in urine as unchanged drug: less than 10%
  Terminal half life: approximately 10 h
[2]
  Changes in ECG findings, vital signs or physical examinations: no clinically significant changes
[2]; 7 of 18 patients, in two the events occurred before start of treatment
  Patients with serious AEs (SAEs): 38.9%
[2]; majority of patients, similar for tablet and capsule
  Plasma glucose (with plasma insulin and C-peptide): Elevations in plasma glucose
[3]; Part A, estimated
  Intra-patient variability for AUCτ: 20%
  Intra-patient variability for Cmax: 22%
[3]; Parts A and B
  Intra-subject variability in AUCτ and Cmax: around 20 % CV
[4]; in six patients of 12
  Number of SAEs: 11
[4]; [6]
  Abdominal pain, All: 1 (8.3) Number of patients (%)
  Abdominal pain, Grade ≥ 3: 1 (8.3) Number of patients (%)
  Anaemia, All: 1 (8.3) Number of patients (%)
  Anaemia, Grade ≥ 3: 1 (8.3) Number of patients (%)
  Any AE (causally related), All: 10 (83.3) Number of patients (%)
  Any AE (causally related), Grade ≥ 3: 5 (41.7) Number of patients (%)
  Any AE (irrespective of causality), All: 12 (100.0) Number of patients (%)
  Any AE (irrespective of causality), Grade ≥ 3: 7 (58.3) Number of patients (%)
  Diarrhoea, All: 8 (66.7) Number of patients (%)
  Diarrhoea, Grade ≥ 3: 1 (8.3) Number of patients (%)
  Hyperglycaemia, All: 6 (50.0) Number of patients (%)
  Hyperglycaemia, Grade ≥ 3: 5 (41.7) Number of patients (%)
  Hypokalaemia, All: 1 (8.3) Number of patients (%)
  Hypokalaemia, Grade ≥ 3: 1 (8.3) Number of patients (%)
  Pneumonia, All: 1 (8.3) Number of patients (%)
  Pneumonia, Grade ≥ 3: 1 (8.3) Number of patients (%)
  Rash macular, All: 1 (8.3) Number of patients (%)
  Rash macular, Grade ≥ 3: 0 Number of patients (%)
  Rash maculopapular, All: 2 (16.7) Number of patients (%)
  Rash maculopapular, Grade ≥ 3: 2 (16.7) Number of patients (%)
  Rash papular, All: 0 Number of patients (%)
  Rash papular, Grade ≥ 3: 0 Number of patients (%)
  Skin discolouration, All: 1 (8.3) Number of patients (%)
  Skin discolouration, Grade ≥ 3: 1 (8.3) Number of patients (%)
[4]; Days 4–7, fasted dose, N = 12
  Abdominal pain, All: 0 Number of patients (%)
  Abdominal pain, Grade ≥ 3: 0 Number of patients (%)
  Anaemia, All: 1 (8.3) Number of patients (%)
  Anaemia, Grade ≥ 3: 0 Number of patients (%)
  Any AE (causally related), All: 4 (33.3) Number of patients (%)
  Any AE (causally related), Grade ≥ 3: 2 (16.7) Number of patients (%)
  Any AE (irrespective of causality), All: 5 (41.7) Number of patients (%)
  Any AE (irrespective of causality), Grade ≥ 3: 2 (16.7) Number of patients (%)
  Diarrhoea, All: 2 (16.7) Number of patients (%)
  Diarrhoea, Grade ≥ 3: 1 (8.3) Number of patients (%)
  Hyperglycaemia, All: 1 (8.3) Number of patients (%)
  Hyperglycaemia, Grade ≥ 3: 1 (8.3) Number of patients (%)
  Hypokalaemia, All: 0 Number of patients (%)
  Hypokalaemia, Grade ≥ 3: 0 Number of patients (%)
  Pneumonia, All: 0 Number of patients (%)
  Pneumonia, Grade ≥ 3: 0 Number of patients (%)
  Rash macular, All: 0 Number of patients (%)
  Rash macular, Grade ≥ 3: 0 Number of patients (%)
  Rash maculopapular, All: 1 (8.3) Number of patients (%)
  Rash maculopapular, Grade ≥ 3: 0 Number of patients (%)
  Rash papular, All: 0 Number of patients (%)
  Rash papular, Grade ≥ 3: 0 Number of patients (%)
  Skin discolouration, All: 0 Number of patients (%)
  Skin discolouration, Grade ≥ 3: 0 Number of patients (%)
[4]; Days 11–14, fed dose, N = 10
  Abdominal pain, All: 0 Number of patients (%)
  Abdominal pain, Grade ≥ 3: 0 Number of patients (%)
  Anaemia, All: 1 (10.0) Number of patients (%)
  Anaemia, Grade ≥ 3: 0 Number of patients (%)
  Any AE (causally related), All: 5 (50.0) Number of patients (%)
  Any AE (causally related), Grade ≥ 3: 4 (40.0) Number of patients (%)
  Any AE (irrespective of causality), All: 6 (60.0) Number of patients (%)
  Any AE (irrespective of causality), Grade ≥ 3: 4 (40.0) Number of patients (%)
  Diarrhoea, All: 3 (30.0) Number of patients (%)
  Diarrhoea, Grade ≥ 3: 2 (20.0) Number of patients (%)
  Hyperglycaemia, All: 1 (10.0) Number of patients (%)
  Hyperglycaemia, Grade ≥ 3: 1 (10.0) Number of patients (%)
  Hypokalaemia, All: 0 Number of patients (%)
  Hypokalaemia, Grade ≥ 3: 0 Number of patients (%)
  Pneumonia, All: 0 Number of patients (%)
  Pneumonia, Grade ≥ 3: 0 Number of patients (%)
  Rash macular, All: 1 (10.0) Number of patients (%)
  Rash macular, Grade ≥ 3: 1 (10.0) Number of patients (%)
  Rash maculopapular, All: 2 (20.0) Number of patients (%)
  Rash maculopapular, Grade ≥ 3: 2 (20.0) Number of patients (%)
  Rash papular, All: 1 (10.0) Number of patients (%)
  Rash papular, Grade ≥ 3: 1 (10.0) Number of patients (%)
  Skin discolouration, All: 0 Number of patients (%)
  Skin discolouration, Grade ≥ 3: 0 Number of patients (%)
[4]; up to 4 h post-dose
  Plasma glucose during the fasted period: no indication of glucose elevation
[5]; Day 8, 3 days after the last dose on Day 4
  Pre-dose plasma concentration, geometric least-squares mean: 3.34 ng/mL
[5]; Day 11
  Average steady-state concentration over the 12-h dosing interval (geometric mean AUCτ/12): 678 ng/mL
[5]; Day 4, overnight fasted
  AUCτ, Gmean (CV%): 9116 (16.8) h ng/mL
  Cmax, Gmean (CV%): 1842 (31.1) ng/mL
  Cmin, Gmean (CV%): 218.5 (30.3) ng/mL
  tmax, median (range): 0.6 (0.5–4) h
[5]; [7]
  AUCτ, Gmean (CV%): 8136 (33.9) h ng/mL
  Cmax, Gmean (CV%): 1239 (23.3) ng/mL
  Cmin, Gmean (CV%): 262.3 (58.6) ng/mL
  tmax, median (range): 2.0 (2–4.3) h
[5]; [8]
  AUCτ GLSM ratio fed:fasted: 0.89
  Cmax GLSM ratio fed:fasted: 0.67
